Assays:
Experiment in all cases: Kinase selectivity panel
Format in all cases: biochemical
Conditions in all cases: read-out: Inhibition(%) @ 1 µM RK-019
SRPK1(h) = target: T1, SRPK1(h) (Homo sapiens, UniProt Q96SB4)
T1 construct: purchased Eurofins Discovery Services (KinaseProfiler)
In short: (§1)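 ATP-site competition binding, in vitro; recombinant human kinase, single concentration 1 µM; % inhibition read-out.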

ZAP-70(h) = target: T2, ZAP-70(h) (Homo sapiens, UniProt P43403)
T2 construct: purchased Eurofins Discovery Services (KinaseProfiler)
In short: as §1

CDK2/cyclinA(h) = target: T3, CDK2/cyclinA(h) (Homo sapiens, UniProt P24941)
T3 construct: purchased Eurofins Discovery Services (KinaseProfiler)
In short: as §1

CDK14/cyclinY(h) = target: T4, CDK14/cyclinY(h) (Homo sapiens, UniProt O94921)
T4 construct: purchased Eurofins Discovery Services (KinaseProfiler)
In short: as §1

[1] = target: T5, PI3 Kinase (p110d/p85a)(m) (Mus musculus, UniProt O35904)
T5 construct: purchased Eurofins Discovery Services (KinaseProfiler)

GRK5(h) = target: T6, GRK5(h) (Homo sapiens, UniProt P34947)
T6 construct: purchased Eurofins Discovery Services (KinaseProfiler)
T6 sequence (P34947 whole entry): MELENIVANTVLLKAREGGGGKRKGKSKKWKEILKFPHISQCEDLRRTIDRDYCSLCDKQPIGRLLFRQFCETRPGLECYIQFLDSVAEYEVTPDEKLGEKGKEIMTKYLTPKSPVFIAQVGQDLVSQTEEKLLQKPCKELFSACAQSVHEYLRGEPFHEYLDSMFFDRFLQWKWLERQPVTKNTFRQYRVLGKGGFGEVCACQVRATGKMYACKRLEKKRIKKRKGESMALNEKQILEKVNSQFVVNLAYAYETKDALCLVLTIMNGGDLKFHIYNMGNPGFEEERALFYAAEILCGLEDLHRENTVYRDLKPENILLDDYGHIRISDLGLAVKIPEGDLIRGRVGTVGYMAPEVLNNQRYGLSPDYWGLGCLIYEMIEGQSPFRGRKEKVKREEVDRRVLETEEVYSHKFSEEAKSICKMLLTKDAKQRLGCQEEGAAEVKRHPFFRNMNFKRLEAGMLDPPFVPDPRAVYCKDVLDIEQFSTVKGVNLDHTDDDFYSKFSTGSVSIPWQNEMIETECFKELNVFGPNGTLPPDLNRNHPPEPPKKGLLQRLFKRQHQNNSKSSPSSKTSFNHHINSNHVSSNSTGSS
In short: as §1

Pyk2(h) = target: T7, Pyk2(h) (Homo sapiens, UniProt Q14289)
T7 construct: purchased Eurofins Discovery Services (KinaseProfiler)
In short: as §1

LTK(h) = target: T8, LTK(h) (Homo sapiens, UniProt P29376)
T8 construct: purchased Eurofins Discovery Services (KinaseProfiler)
T8 sequence (P29376 17-864): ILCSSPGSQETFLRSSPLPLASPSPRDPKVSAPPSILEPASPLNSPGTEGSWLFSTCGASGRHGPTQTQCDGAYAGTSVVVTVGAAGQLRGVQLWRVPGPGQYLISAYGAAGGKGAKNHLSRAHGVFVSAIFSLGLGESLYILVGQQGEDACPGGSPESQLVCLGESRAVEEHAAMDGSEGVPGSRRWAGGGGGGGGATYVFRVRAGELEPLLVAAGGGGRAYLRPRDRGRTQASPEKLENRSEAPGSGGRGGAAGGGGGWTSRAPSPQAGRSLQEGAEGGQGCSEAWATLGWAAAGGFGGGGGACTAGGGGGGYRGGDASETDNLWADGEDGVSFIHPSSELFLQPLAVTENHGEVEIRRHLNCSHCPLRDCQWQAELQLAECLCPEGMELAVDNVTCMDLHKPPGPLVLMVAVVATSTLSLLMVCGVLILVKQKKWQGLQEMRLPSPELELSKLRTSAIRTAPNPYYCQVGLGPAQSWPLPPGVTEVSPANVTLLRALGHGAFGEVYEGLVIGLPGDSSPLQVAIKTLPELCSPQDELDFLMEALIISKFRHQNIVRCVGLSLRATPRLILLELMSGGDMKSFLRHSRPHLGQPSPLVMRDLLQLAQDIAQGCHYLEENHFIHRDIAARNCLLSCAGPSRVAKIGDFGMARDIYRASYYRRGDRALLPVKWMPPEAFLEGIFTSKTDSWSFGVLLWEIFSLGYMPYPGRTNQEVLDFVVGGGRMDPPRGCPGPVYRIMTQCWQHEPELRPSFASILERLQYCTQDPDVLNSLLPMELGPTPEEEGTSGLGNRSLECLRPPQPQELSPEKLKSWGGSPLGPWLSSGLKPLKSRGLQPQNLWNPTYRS
In short: as §1

HRI(h) = target: T9, HRI(h) (Homo sapiens, UniProt Q9BQI3)
T9 construct: purchased Eurofins Discovery Services (KinaseProfiler)
In short: as §1

DYRK1B(h) = target: T10, DYRK1B(h) (Homo sapiens, UniProt Q9Y463)
T10 construct: purchased Eurofins Discovery Services (KinaseProfiler)
In short: as §1

Pim-3(h) = target: T11, Pim-3(h) (Homo sapiens, UniProt Q86V86)
T11 construct: purchased Eurofins Discovery Services (KinaseProfiler)
In short: as §1

MYO3B(h) = target: T12, MYO3B(h) (Homo sapiens, UniProt Q8WXR4)
T12 construct: purchased Eurofins Discovery Services (KinaseProfiler)
In short: as §1

Tie2 (h) = target: T13, Tie2 (h) (Homo sapiens, UniProt Q02763)
T13 construct: purchased Eurofins Discovery Services (KinaseProfiler)
T13 sequence (Q02763 23-1124): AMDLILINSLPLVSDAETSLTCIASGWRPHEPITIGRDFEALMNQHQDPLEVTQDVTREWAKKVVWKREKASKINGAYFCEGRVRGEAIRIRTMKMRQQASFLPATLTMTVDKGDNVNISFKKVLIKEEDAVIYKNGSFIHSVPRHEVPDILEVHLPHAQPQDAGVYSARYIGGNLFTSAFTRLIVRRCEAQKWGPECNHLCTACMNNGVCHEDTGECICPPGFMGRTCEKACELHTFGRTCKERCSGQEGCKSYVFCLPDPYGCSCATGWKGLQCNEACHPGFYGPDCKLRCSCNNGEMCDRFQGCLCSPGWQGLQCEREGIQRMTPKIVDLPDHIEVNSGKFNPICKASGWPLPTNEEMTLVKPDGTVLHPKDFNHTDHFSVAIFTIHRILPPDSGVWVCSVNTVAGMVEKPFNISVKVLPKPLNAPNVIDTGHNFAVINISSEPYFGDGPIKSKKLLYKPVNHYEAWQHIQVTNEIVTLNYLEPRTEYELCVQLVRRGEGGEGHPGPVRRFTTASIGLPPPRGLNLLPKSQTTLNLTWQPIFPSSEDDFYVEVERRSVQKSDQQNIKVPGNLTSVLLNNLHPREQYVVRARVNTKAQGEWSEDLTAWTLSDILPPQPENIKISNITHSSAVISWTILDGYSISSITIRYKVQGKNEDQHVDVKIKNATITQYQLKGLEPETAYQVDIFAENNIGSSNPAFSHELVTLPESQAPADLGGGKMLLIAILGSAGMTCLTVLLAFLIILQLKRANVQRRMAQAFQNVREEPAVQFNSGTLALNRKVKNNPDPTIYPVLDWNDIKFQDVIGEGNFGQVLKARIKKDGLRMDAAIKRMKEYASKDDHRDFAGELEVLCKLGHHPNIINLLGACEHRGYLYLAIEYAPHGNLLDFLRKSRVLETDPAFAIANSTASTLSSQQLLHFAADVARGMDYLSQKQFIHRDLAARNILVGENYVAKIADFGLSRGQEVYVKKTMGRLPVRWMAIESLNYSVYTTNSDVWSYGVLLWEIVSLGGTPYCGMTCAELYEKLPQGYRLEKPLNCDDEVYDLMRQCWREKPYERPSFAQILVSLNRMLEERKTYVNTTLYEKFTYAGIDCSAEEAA
In short: as §1

TSSK2(h) = target: T14, TSSK2(h) (Homo sapiens, UniProt Q96PF2)
T14 construct: purchased Eurofins Discovery Services (KinaseProfiler)
T14 sequence (Q96PF2 whole entry): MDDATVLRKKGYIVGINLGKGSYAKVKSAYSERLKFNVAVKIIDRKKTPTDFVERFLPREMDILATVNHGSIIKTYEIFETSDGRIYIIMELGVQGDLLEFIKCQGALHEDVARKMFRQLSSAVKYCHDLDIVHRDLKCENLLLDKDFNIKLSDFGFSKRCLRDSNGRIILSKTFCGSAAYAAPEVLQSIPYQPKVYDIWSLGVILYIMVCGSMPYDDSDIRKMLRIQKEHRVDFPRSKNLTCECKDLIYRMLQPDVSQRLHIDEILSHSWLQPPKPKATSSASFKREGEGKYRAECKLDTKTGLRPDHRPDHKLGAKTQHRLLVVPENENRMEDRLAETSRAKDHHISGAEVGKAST
In short: as §1

PEK(h) = target: T15, PEK(h) (Homo sapiens, UniProt Q9NZJ5)
T15 construct: purchased Eurofins Discovery Services (KinaseProfiler)
T15 sequence (Q9NZJ5 30-1116): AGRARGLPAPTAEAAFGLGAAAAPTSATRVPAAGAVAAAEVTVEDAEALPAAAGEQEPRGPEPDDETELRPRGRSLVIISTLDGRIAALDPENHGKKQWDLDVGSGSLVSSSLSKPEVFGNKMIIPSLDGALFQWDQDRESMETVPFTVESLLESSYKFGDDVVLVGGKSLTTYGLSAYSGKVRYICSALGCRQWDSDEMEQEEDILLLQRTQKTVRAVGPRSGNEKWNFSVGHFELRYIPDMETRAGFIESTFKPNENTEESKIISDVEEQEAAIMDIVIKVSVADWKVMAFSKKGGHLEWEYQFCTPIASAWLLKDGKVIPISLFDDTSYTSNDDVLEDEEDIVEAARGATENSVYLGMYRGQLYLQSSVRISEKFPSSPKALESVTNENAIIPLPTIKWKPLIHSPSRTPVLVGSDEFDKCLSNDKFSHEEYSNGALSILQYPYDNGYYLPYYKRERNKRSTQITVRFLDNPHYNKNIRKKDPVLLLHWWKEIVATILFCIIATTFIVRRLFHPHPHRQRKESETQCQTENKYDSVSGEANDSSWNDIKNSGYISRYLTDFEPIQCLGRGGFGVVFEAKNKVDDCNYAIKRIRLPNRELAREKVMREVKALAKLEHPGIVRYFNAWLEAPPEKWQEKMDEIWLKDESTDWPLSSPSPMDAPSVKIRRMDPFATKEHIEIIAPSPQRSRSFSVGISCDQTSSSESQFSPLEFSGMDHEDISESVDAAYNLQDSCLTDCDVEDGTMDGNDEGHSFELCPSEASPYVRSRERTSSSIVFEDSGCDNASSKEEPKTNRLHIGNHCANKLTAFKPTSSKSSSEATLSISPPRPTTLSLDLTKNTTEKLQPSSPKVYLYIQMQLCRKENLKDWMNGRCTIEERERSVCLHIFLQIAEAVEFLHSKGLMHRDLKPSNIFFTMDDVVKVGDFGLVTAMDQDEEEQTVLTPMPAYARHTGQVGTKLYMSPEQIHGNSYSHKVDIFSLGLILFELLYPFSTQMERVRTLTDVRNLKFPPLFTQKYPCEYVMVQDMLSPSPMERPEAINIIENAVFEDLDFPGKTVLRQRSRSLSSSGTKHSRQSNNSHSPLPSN
In short: as §1

Txk(h) = target: T16, Txk(h) (Homo sapiens, UniProt P42681)
T16 construct: purchased Eurofins Discovery Services (KinaseProfiler)
In short: as §1

NIM1(h) = target: T17, NIM1(h) (Homo sapiens, UniProt Q8IY84)
T17 construct: purchased Eurofins Discovery Services (KinaseProfiler)
In short: as §1

CK1δ(h) = target: T18, CK1δ(h) (Homo sapiens, UniProt P48730)
T18 construct: purchased Eurofins Discovery Services (KinaseProfiler)
In short: as §1

CaMKIIγ(h) = target: T19, CaMKIIγ(h) (Homo sapiens, UniProt Q13555)
T19 construct: purchased Eurofins Discovery Services (KinaseProfiler)
In short: as §1

DAPK1(h) = target: T20, DAPK1(h) (Homo sapiens, UniProt P53355)
T20 construct: purchased Eurofins Discovery Services (KinaseProfiler)
In short: as §1

SAPK2a(T106M)(h) = target: T21, SAPK2a(T106M)(h) (Homo sapiens, UniProt Q16539, T106M)
T21 construct: purchased Eurofins Discovery Services (KinaseProfiler)
T21 sequence (Q16539 whole entry T106M): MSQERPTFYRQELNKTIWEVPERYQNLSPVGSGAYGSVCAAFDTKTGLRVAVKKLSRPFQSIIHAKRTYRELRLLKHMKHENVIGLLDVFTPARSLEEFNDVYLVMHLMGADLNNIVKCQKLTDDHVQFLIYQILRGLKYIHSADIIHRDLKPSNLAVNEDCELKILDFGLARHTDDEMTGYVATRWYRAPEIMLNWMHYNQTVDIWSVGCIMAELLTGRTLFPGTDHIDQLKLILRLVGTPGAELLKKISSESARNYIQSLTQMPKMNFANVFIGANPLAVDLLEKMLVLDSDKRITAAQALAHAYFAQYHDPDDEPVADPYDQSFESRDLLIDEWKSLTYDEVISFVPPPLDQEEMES
In short: as §1

VRK1(h) = target: T22, VRK1(h) (Homo sapiens, UniProt Q99986)
T22 construct: purchased Eurofins Discovery Services (KinaseProfiler)
In short: as §1

Blk(h) = target: T23, Blk(h) (Homo sapiens, UniProt P51451)
T23 construct: purchased Eurofins Discovery Services (KinaseProfiler)
In short: as §1

PKCγ(h) = target: T24, PKCγ(h) (Homo sapiens, UniProt P05129)
T24 construct: purchased Eurofins Discovery Services (KinaseProfiler)
In short: as §1

c-RAF(h) = target: T25, c-RAF(h) (Homo sapiens, UniProt P04049)
T25 construct: purchased Eurofins Discovery Services (KinaseProfiler)
In short: as §1

Arg(h) = target: T26, Arg(h) (Homo sapiens, UniProt P42684)
T26 construct: purchased Eurofins Discovery Services (KinaseProfiler)
In short: as §1

MRCKα(h) = target: T27, MRCKα(h) (Homo sapiens, UniProt Q5VT25)
T27 construct: purchased Eurofins Discovery Services (KinaseProfiler)
In short: as §1

Mer(h) = target: T28, Mer(h) (Homo sapiens, UniProt Q12866)
T28 construct: purchased Eurofins Discovery Services (KinaseProfiler)
In short: as §1

STK32C(h) = target: T29, STK32C(h) (Homo sapiens, UniProt Q86UX6)
T29 construct: purchased Eurofins Discovery Services (KinaseProfiler)
In short: as §1

Plk4(h) = target: T30, Plk4(h) (Homo sapiens, UniProt O00444)
T30 construct: purchased Eurofins Discovery Services (KinaseProfiler)
In short: as §1

SIK(h) = target: T31, SIK(h) (Homo sapiens, UniProt P57059)
T31 construct: purchased Eurofins Discovery Services (KinaseProfiler)
In short: as §1

MKK3(h) = target: T32, MKK3(h) (Homo sapiens, UniProt P46734)
T32 construct: purchased Eurofins Discovery Services (KinaseProfiler)
In short: as §1

Lck(h) activated = target: T33, Lck(h) activated (Homo sapiens, UniProt P06239)
T33 construct: purchased Eurofins Discovery Services (KinaseProfiler)
In short: as §1

STK32B(h) = target: T34, STK32B(h) (Homo sapiens, UniProt Q9NY57)
T34 construct: purchased Eurofins Discovery Services (KinaseProfiler)
In short: as §1

MAPKAP-K3(h) = target: T35, MAPKAP-K3(h) (Homo sapiens, UniProt Q16644)
T35 construct: purchased Eurofins Discovery Services (KinaseProfiler)
T35 sequence (Q16644 whole entry): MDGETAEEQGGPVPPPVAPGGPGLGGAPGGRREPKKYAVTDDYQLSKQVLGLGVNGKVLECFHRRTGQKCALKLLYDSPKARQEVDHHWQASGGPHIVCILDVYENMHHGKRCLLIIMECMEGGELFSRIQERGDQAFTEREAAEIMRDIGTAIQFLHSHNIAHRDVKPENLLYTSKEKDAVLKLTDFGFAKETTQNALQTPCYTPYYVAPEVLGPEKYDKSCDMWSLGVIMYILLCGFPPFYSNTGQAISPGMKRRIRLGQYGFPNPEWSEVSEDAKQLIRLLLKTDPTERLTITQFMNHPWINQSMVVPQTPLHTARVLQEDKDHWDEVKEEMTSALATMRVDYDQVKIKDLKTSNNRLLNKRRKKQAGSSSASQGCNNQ
In short: as §1

Met(D1246N)(h) = target: T36, Met(D1246N)(h) (Homo sapiens, UniProt P08581, D1228N)
T36 construct: purchased Eurofins Discovery Services (KinaseProfiler)
In short: as §1

MARK3(h) = target: T37, MARK3(h) (Homo sapiens, UniProt P27448)
T37 construct: purchased Eurofins Discovery Services (KinaseProfiler)
In short: as §1

Structure (SMILES): COc1cc(OC)cc(N(CCN[C@H](C)CO)c2ccc3ncc(-c4cnn(C)c4)c(=O)n3c2)c1 [RK-019, (R)-7-((3,5-dimethoxyphenyl) (2-((1-hydroxypropan-2-yl)amino)ethyl)amino)-3-(1-methyl-1H-pyrazol-4-yl)-4H-pyrido [1,2-a]pyrimidin-4-one]
- activity at 1 µM (SRPK1(h)): 112%
- activity at 1 µM (ZAP-70(h)): 119%
- activity at 1 µM (CDK2/cyclinA(h)): 115%
- activity at 1 µM (CDK14/cyclinY(h)): 91%
- activity at 1 µM [1]: 98%
- activity at 1 µM (GRK5(h)): 135%
- activity at 1 µM (Pyk2(h)): 112%
- activity at 1 µM (LTK(h)): 101%
- activity at 1 µM (HRI(h)): 100%
- activity at 1 µM (DYRK1B(h)): 97%
- activity at 1 µM (Pim-3(h)): 114%
- activity at 1 µM (MYO3B(h)): 106%
- activity at 1 µM (Tie2 (h)): 105%
- activity at 1 µM (TSSK2(h)): 91%
- activity at 1 µM (PEK(h)): 85%
- activity at 1 µM (Txk(h)): 106%
- activity at 1 µM (NIM1(h)): 103%
- activity at 1 µM (CK1δ(h)): 94%
- activity at 1 µM (CaMKIIγ(h)): 106%
- activity at 1 µM (DAPK1(h)): 100%
- activity at 1 µM (SAPK2a(T106M)(h)): 90%
- activity at 1 µM (VRK1(h)): 98%
- activity at 1 µM (Blk(h)): 70%
- activity at 1 µM (PKCγ(h)): 92%
- activity at 1 µM (c-RAF(h)): 94%
- activity at 1 µM (Arg(h)): 86%
- activity at 1 µM (MRCKα(h)): 103%
- activity at 1 µM (Mer(h)): 108%
- activity at 1 µM (STK32C(h)): 72%
- activity at 1 µM (Plk4(h)): 91%
- activity at 1 µM (SIK(h)): 89%
- activity at 1 µM (MKK3(h)): 96%
- activity at 1 µM (Lck(h) activated): 36%
- activity at 1 µM (STK32B(h)): 123%
- activity at 1 µM (MAPKAP-K3(h)): 109%
- activity at 1 µM (Met(D1246N)(h)): 89%
- activity at 1 µM (MARK3(h)): 80%
